Series [1] concerns Mycobacterium tuberculosis. Type of series: functional, H37Rv ATCC 27294, THP-1. Particulars: Mycobacterium tuberculosis, H37Rv ATCC 27294; read-out: MIC.
The nature of series [2]: Inhibition of Mycobacterium smegmatis thioredoxin 6xHis-tagged decaprenylphosphoryl-beta-D-ribose2'-epimerase 1 overexpressed in Escherichia coli rosetta cells using farnesyl-phosphoryl-beta-D-ribofuranose as substrate. Set-up: species or system Mycolicibacterium smegmatis.
The nature of series [3]: Octanol-water partition coefficient, log D of the compound at pH 7.4 by shake flask method. Type of series: physicochemical.
In series [4] the test system is Mycobacterium tuberculosis. In words: microbe, parasite or virus in culture. To be noted: H37Rv ATCC 27294, 120 h.
Description: Antimicrobial activity against Mycobacterium tuberculosis H37Rv ATCC 27294 assessed as growth inhibition after 5 days by microdilution method
For a further series, the target named is Phosphodiesterase 6. In words: Inhibition of PDE6 (unknown origin). Type of series: protein assay, Homo sapiens.
Series [5] in a line: Intrinsic clearance in mouse liver microsomes. Particulars: read-out: CLH. Type of series: ADME. For orientation: Liver microsomes are a subcellular fraction often used to study metabolism.
Series [6] can be described thus: Aqueous solubility of the compound in phosphate buffer at pH 7.4 after 24 hrs by UV-MS analysis. Type of series: physicochemical.
Series [7] in a line: Unbound fraction in human plasma. Type of series: ADME, cell-free.
Series [8] is described as follows: Permeability across apical to basolateral side in human Caco2 cells. Type of series: ADME, cell-based. To be noted: Caco-2, read-out: permeability.
The next series concerns the target Cytochrome P450 2D6 (Homo sapiens, UniProt P10635). In words: Inhibition of human CYP2D6. Type of series: ADME.
A further series concerns the target Cytochrome P450 2C19 (Homo sapiens, UniProt P33261). The series can be described thus: Inhibition of human CYP2C19. Type of series: ADME.
The next series concerns the target Cytochrome P450 2C9 (Homo sapiens, UniProt P11712). In words: Inhibition of human CYP2C9. Type of series: ADME.
A further series concerns the target T1, Cytochrome P450 1A2 (Homo sapiens, UniProt P05177).
T1 sequence (P05177 whole entry): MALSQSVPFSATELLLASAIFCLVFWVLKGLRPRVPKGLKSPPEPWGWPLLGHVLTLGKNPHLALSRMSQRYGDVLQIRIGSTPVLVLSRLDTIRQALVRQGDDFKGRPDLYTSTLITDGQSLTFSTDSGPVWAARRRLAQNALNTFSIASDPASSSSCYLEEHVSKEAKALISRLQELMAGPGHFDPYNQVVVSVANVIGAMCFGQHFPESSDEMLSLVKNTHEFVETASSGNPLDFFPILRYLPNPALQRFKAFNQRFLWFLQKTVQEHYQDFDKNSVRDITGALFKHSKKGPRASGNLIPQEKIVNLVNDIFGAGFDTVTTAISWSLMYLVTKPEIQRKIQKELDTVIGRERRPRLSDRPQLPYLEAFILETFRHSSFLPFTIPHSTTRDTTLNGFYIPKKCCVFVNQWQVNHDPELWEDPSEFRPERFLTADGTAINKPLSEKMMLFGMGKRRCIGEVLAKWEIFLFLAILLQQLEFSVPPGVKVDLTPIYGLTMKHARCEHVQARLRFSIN
In words: Inhibition of human CYP1A2. Type of series: ADME.

The next series deals with Cytochrome P450 3A4 (Homo sapiens, UniProt P08684). In words: Inhibition of human CYP3A4. Type of series: ADME.
Chain of Cytochrome P450 3A4 (P08684 whole entry): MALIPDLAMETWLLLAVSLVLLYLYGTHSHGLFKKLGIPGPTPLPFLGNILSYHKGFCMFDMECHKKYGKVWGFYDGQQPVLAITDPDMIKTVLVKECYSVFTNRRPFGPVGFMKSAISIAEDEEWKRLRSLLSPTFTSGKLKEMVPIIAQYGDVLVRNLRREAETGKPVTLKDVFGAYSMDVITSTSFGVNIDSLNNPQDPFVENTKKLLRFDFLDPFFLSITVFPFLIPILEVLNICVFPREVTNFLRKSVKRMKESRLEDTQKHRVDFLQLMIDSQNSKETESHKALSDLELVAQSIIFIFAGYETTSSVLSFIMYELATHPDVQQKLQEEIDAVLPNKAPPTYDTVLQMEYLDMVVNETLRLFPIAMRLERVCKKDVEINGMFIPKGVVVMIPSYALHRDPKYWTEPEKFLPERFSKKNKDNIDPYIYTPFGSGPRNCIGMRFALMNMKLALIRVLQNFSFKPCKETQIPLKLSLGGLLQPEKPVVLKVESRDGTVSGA
A short description of series [9]: Clearance in po dosed rat. Type of series: ADME, organism-based. Particulars: in vivo.
Series [10] can be described thus: Oral bioavailability in rat. Type of series: ADME, organism-based. Particulars: in vivo.
Series [11] can be described thus: Cmax in BALB/c mouse at 100 mg/kg, po administered as single dose. Type of series: ADME, organism-based. Set-up: dose 100 mg/kg, route oral. Particulars: in vivo.
Series [12] can be described thus: Tmax in BALB/c mouse at 100 mg/kg, po administered as single dose. Type of series: ADME, organism-based. Set-up: dose 100 mg/kg, route oral. To be noted: in vivo.
Series [13] can be described thus: AUC (infinity) in BALB/c mouse at 100 mg/kg, po administered as single dose. Type of series: ADME, organism-based. Set-up: time infinity, dose 100 mg/kg, route oral. Particulars: plasma.
Series [14] in a line: Half life in BALB/c mouse at 100 mg/kg, po administered as single dose. Set-up: dose 100 mg/kg, route oral. Particulars: in vivo. Type of series: ADME, organism-based.
A short description of series [15]: Permeability across basolateral to apical side in human Caco2 cells. Type of series: ADME, cell-based. Particulars: Caco-2, read-out: permeability. (In general: Passage across Caco-2 layers is used to estimate intestinal permeability.)
Series [16] has as its target Voltage-gated inwardly rectifying potassium channel KCNH2 (Homo sapiens, UniProt Q12809).

Values after ≈ are worked out from the molar mass of the structure shown.

Chain of Cytochrome P450 2D6 (P10635 whole entry): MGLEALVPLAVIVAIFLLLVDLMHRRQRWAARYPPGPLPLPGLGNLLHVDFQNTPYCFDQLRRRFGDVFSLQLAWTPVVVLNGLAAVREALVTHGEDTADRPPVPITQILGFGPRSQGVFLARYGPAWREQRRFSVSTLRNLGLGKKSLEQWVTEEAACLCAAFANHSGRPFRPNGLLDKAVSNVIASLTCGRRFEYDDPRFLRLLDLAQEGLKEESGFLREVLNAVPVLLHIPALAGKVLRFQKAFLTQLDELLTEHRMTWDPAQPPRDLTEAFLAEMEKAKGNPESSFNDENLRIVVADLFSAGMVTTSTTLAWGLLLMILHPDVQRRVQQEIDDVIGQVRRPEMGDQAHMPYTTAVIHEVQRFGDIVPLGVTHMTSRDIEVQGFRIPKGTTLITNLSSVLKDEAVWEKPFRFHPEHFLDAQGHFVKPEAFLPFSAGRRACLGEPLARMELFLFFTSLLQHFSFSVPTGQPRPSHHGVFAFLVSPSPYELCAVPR
Chain of Cytochrome P450 2C19 (P33261 whole entry): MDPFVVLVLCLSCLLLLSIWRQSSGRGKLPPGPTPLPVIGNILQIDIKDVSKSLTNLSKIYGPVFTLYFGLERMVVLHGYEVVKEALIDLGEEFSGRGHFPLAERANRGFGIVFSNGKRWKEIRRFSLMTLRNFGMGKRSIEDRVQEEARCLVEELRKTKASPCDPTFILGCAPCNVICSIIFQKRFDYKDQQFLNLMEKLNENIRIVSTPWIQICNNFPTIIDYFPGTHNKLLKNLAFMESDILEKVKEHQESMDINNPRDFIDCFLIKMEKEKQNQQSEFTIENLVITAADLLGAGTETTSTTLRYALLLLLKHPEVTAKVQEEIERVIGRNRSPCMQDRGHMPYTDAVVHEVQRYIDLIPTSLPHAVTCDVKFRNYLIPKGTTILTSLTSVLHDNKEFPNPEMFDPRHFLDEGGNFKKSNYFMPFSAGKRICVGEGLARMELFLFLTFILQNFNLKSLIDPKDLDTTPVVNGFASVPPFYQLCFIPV
Chain of Cytochrome P450 2C9 (P11712 whole entry): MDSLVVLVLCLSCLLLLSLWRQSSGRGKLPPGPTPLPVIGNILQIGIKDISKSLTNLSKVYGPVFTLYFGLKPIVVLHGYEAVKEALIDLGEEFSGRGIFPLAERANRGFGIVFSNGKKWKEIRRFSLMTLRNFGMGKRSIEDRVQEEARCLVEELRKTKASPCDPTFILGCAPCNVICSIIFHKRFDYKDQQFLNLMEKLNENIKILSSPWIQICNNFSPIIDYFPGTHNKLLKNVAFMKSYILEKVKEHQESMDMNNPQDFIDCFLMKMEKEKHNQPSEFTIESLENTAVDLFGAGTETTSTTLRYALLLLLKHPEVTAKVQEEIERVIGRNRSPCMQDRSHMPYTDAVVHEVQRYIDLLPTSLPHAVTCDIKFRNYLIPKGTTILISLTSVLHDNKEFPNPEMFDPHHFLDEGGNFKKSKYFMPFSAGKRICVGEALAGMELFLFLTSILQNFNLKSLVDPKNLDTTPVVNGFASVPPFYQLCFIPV
Chain of Voltage-gated inwardly rectifying potassium channel KCNH2 (Q12809 whole entry): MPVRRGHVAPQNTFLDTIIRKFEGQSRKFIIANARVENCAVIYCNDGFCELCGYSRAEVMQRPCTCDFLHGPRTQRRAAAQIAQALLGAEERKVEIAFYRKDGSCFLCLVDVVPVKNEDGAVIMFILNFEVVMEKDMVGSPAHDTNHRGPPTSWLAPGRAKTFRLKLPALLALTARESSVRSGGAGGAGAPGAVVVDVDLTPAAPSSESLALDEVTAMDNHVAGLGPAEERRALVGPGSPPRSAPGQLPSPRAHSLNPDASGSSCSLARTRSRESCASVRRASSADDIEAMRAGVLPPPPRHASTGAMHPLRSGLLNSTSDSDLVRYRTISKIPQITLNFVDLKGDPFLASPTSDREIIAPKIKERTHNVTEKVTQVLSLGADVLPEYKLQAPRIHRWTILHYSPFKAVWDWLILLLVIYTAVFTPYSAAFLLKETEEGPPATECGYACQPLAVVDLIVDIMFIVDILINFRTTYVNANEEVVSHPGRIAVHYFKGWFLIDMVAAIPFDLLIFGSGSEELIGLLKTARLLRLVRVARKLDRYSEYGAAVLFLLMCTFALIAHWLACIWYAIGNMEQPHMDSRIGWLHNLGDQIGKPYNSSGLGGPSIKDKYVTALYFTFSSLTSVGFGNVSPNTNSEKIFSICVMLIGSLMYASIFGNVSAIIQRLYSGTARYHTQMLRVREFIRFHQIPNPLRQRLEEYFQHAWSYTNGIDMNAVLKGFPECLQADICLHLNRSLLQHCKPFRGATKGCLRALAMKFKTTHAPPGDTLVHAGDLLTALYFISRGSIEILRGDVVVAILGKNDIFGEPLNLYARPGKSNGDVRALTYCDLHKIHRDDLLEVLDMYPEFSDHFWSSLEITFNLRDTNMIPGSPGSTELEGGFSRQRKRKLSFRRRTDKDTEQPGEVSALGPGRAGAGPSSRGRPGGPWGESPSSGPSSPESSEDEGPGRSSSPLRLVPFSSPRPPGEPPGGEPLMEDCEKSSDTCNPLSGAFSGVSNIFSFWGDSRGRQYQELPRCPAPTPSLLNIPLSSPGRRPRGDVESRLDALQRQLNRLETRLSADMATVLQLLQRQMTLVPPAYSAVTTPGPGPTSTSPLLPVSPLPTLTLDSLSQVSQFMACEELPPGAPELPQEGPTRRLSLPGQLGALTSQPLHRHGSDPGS

By IC50 is commonly meant the concentration that inhibits the measured activity by half. What is called logD is lipophilicity at a set pH, counting ionised and neutral species. With `COc1ncnc(Cn2cc(C(=O)NCCF)c3ncc(C4CC4)cc32)c1C`, in series [1], the MIC is 3.12 µM (≈ 1.2 µg/mL). In addition, in series [2], 13 nM corresponded to half-maximal inhibition (IC50). Besides, the logD in series [3] stood at 3.1.

`CO[C@H]1/C=C/O[C@@]2(C)Oc3c(C)c(O)c4c(O)c(cc(O)c4c3C2=O)NC(=O)/C(C)=C\C=C\[C@H](C)[C@H](O)[C@@H](C)[C@@H](O)[C@@H](C)[C@H](OC(C)=O)[C@@H]1C` [RIFAMYCIN] returned an MIC in series [4] of 0.004 µM (≈ 0.00279 µg/mL).

As to `COc1cnc2c(C(=O)NCCO)cn(Cc3ncnc(OC(F)F)c3C)c2c1`, the MIC in series [1] is 0.78 µM (≈ 0.318 µg/mL). Moreover, the IC50 in series [2] was 17 nM.

Regarding `COc1ncc(F)cc1Cn1cc(C(=O)NC[C@H](C)F)c2ncc(C)cc21`, the MIC in [1] was less than 0.39 µM. Besides, the IC50 in [2] is 4 nM; on Phosphodiesterase 6, more than 100000 nM.

Take `COc1ncc(C(F)(F)F)cc1Cn1cc(C(=O)NCCO)c2ncc(C)cc21`: the MIC in series [1] came out at 1.56 µM (≈ 0.637 µg/mL). Also, the IC50 in series [2] worked out at 7 nM.

One may read the solubility as the concentration that dissolves in the medium under given conditions. The low end stands for a poorly soluble substance, the high end for a readily soluble substance. As usually defined, the fraction unbound is the share of the substance not bound to proteins or other matrix. A word on the CL/F: it is the apparent clearance, not corrected for the fraction that reaches the circulation. A word on the bioavailability: it is dose-corrected exposure relative to a reference, in per cent. Low readings indicate poor availability, high ones good availability. Usually Cmax stands for the peak of the concentration-time curve. Usually Tmax stands for the time at which the peak concentration occurs. In general, AUC(0-inf) refers to the area under the concentration-time curve extrapolated to infinity. The term half-life denotes the time in which the quantity being followed falls by half. A low value points to rapid decline. With `COc1cnc2c(C(=O)NCCO)cn(Cc3ncnc(OC)c3C)c2c1`, the MIC came out at 0.78 µM (≈ 0.29 µg/mL) in series [1] and 1.56 µM (≈ 0.579 µg/mL) in series [4]. The IC50 is 19 nM in [2]; 2000 nM at Phosphodiesterase 6; more than 50000 nM against Cytochrome P450 2D6; more than 50000 nM against Cytochrome P450 2C19; more than 50000 nM at Cytochrome P450 2C9; more than 50000 nM at Cytochrome P450 1A2. For the same compound, at Cytochrome P450 3A4, the half-maximal inhibitory concentration (IC50) is more than 50000 nM. In addition, the microsomal CLint in series [5] is less than 24 µL/min/mg. In addition, in series [3], the logD is 1.6. The compound further returned a solubility at 24 h in series [6] of 315 µM (≈ 117 µg/mL). This compound also registered a fraction unbound in series [7] of 0.17. The Papp A→B in series [8] was 11 ×10⁻⁶ cm/s. In series [9], this compound showed a CL/F of 12 mL/min/kg. Further, the bioavailability in series [10] stood at 100%. This compound registered a Cmax in series [11] of 105 µM. The Tmax in series [12] was 0.5 h. In addition, the total exposure AUC(0-inf) in series [13] came to 286 µM·h. This compound also showed a half-life in series [14] of 2 h. Also, the Papp B→A in series [15] amounted to 31 ×10⁻⁶ cm/s.

In the case of `COc1ccc2c(n1)c(C(=O)NCC1CC1)cn2Cc1ccc(C)cc1C`, the MIC in series [1] is more than 100 µM.

As to `COc1ncnc(Cn2cc(C(=O)NCCF)c3ncc(F)cc32)c1C`, the MIC in [1] is 6.25 µM (≈ 2.26 µg/mL).

Consider `COc1cnc2c(C(=O)NCCO)cn(Cc3ncnc(N(C)C)c3C)c2c1`, for which the MIC is less than 0.39 µM in [1] and 0.39 µM (≈ 0.15 µg/mL) in series [4]. Further, the IC50 in series [2] was 43 nM; on Phosphodiesterase 6, more than 100000 nM; against Cytochrome P450 2D6 it was more than 50000 nM; at Cytochrome P450 2C19, more than 50000 nM; at Cytochrome P450 2C9, more than 50000 nM; at Cytochrome P450 1A2 it was more than 50000 nM. In addition, the IC50 against Cytochrome P450 3A4 was more than 50000 nM; in series [16], more than 33000 nM. Further, the microsomal CLint in [5] came out at 26 µL/min/mg. This compound also came in with a logD in series [3] of 1.6. The solubility at 24 h in series [6] is 129 µM (≈ 49.6 µg/mL). In [7], the fraction unbound was found to be 0.3. Also, the Papp A→B in [8] stood at 3 ×10⁻⁶ cm/s. This compound also displayed a CL/F in series [9] of 16 mL/min/kg. The bioavailability in [10] came out at 87%. Besides, the concentration in series [11] peaked (Cmax) at 23 µM. In addition, in [12], the Tmax amounted to 0.3 h. The AUC(0-inf) in series [13] was determined as 57 µM·h. In series [14], this compound gave a half-life of 2 h. Besides, in series [15], the Papp B→A is 39 ×10⁻⁶ cm/s.

As for `COc1cnc2c(C(=O)NCC(F)F)cn(Cc3ncnc(N(C)C)c3C)c2c1`, in [1], the MIC is less than 0.39 µM. The compound also registered an IC50 in series [2] of 3 nM. In addition, the microsomal CLint in [5] is more than 130 µL/min/mg. In [3], this compound had a logD of 2.5.

`COc1ncnc(Cn2cc(C(=O)NCCF)c3ncc(C(F)(F)F)cc32)c1C`: in series [1], the MIC was more than 200 µM. In [2], this compound showed an IC50 of 200 nM.

Compound `NNC(=O)c1ccncc1` [ISONIAZID] registered an MIC in series [4] of 0.312 µM (≈ 0.0428 µg/mL).

For the compound `COc1cnc2c(C(=O)NCC(F)F)cn(Cc3ncnc(OC)c3C)c2c1`, the MIC in series [1] was less than 0.39 µM. The same compound gave an IC50 in series [2] of 9 nM. The microsomal CLint in [5] worked out at 106 µL/min/mg. In addition, the logD in series [3] was found to be 2.8.

`COc1cnc2c(C(=O)NCC(F)F)cn(Cc3ncnc(OC(F)F)c3C)c2c1`: the MIC in series [1] is less than 0.39 µM. This compound showed an IC50 in series [2] of 5 nM. This compound also displayed a logD in series [3] of 2.4.

In the case of `COc1ncnc(Cn2cc(C(=O)NCCF)c3ncc(Br)cc32)c1C`, the MIC in series [1] was 1.56 µM (≈ 0.659 µg/mL). Also, the IC50 in series [2] came to 22 nM. The compound also gave a logD in series [3] of 2.4.

The values above are taken from ChEMBL document CHEMBL3286390, “Lead optimization of 1,4-azaindoles as antimycobacterial agents” (J Med Chem, 2014).
